Data from patent US20220281848A1, “PYRAZOLE-SUBSTITUTED PYRROLIDINONES AS HERBICIDES” (FMC Corporation, priority 2019, published 2022).

Experiments:
Format in all cases: in vivo
Details in all cases: after 13 d
corn (Zea mays, ZEAMX) [1] = experiment: Test A pre-emergence, corn
Protocol: (§1) Seeds of corn (Zea mays, ZEAMX), giant foxtail (Setaria faberi, SETFA), barnyardgrass (Echinochloa crus-galli, ECHCG), ivy-leaved morning glory (Ipomoea hederacea, IPOHE), redroot pigweed (Amaranthus retroflexus, AMARE) and velvetleaf (Abutilon theophrasti, ABUTH) were sown in standard soil in pots. After cultivation for one day under controlled conditions in a glasshouse (at 24/16° C., day/night; 14 h light; 65% humidity), the plants were sprayed with an aqueous spray solution derived from the formulation of the technical active ingredient in acetone/water (50:50) solution containing 0.5% Tween 20 (polyoxyethylene sorbitan monolaurate, CAS RN 9005-64-5) to give a final dose of 15.625, 62.5 or 250 g/ha of test compound.
(§2) The test plants were then grown under controlled conditions in a glasshouse (at 24/16° C., day/night; 14 h light; 65% humidity) and watered twice daily. After 13 d the test was evaluated (100=total damage to plant; 0=no damage to plant).

[2] = tested on: giant foxtail (Setaria faberi, SETFA); experiment: Test A pre-emergence, giant foxtail
Protocol: as §1, §2

[3] = tested on: barnyardgrass (Echinochloa crus-galli, ECHCG); experiment: Test A pre-emergence, barnyardgrass
Protocol: as §1, §2

[4] = tested on: ivy-leaved morning glory (Ipomoea hederacea, IPOHE); experiment: Test A pre-emergence, ivy-leaved morning glory
Protocol: as §1, §2

[5] = tested on: redroot pigweed (Amaranthus retroflexus, AMARE); experiment: Test A pre-emergence, redroot pigweed
Protocol: as §1, §2

[6] = tested on: velvetleaf (Abutilon theophrasti, ABUTH); experiment: Test A pre-emergence, velvetleaf
Protocol: as §1, §2

corn (Zea mays, ZEAMX) [7] = experiment: Test A post-emergence, corn
Protocol: as §1, with “IPOHE)),” for “IPOHE),”, “8 d” for “one day”
(§3) The test plants were then grown on under controlled conditions in a glasshouse (at 24/16° C., day/night; 14 h light; 65% humidity) and watered twice daily. After 13 d the test was evaluated (100=total damage to plant; 0=no damage to plant).

[8] = tested on: giant foxtail (Setaria faberi, SETFA); experiment: Test A post-emergence, giant foxtail
Protocol: as §1, with “IPOHE)),” for “IPOHE),”, “8 d” for “one day”
as §3

[9] = tested on: barnyardgrass (Echinochloa crus-galli, ECHCG); experiment: Test A post-emergence, barnyardgrass
Protocol: as §1, with “IPOHE)),” for “IPOHE),”, “8 d” for “one day”
as §3

[10] = tested on: ivy-leaved morning glory (Ipomoea hederacea, IPOHE); experiment: Test A post-emergence, ivy-leaved morning glory
Protocol: as §1, with “IPOHE)),” for “IPOHE),”, “8 d” for “one day”
as §3

[11] = tested on: redroot pigweed (Amaranthus retroflexus, AMARE); experiment: Test A post-emergence, redroot pigweed
Protocol: as §1, with “IPOHE)),” for “IPOHE),”, “8 d” for “one day”
as §3

[12] = tested on: velvetleaf (Abutilon theophrasti, ABUTH); experiment: Test A post-emergence, velvetleaf
Protocol: as §1, with “IPOHE)),” for “IPOHE),”, “8 d” for “one day”
as §3

SMILES | damage to plant (100=total damage; 0=no damage) ZEAMX (corn (Zea mays, ZEAMX) [1]; Pre-Emergence at 15.625 g/ha) | damage to plant (100=total damage; 0=no damage) ZEAMX (corn (Zea mays, ZEAMX) [1]; Pre-Emergence at 62.5 g/ha) | damage to plant (100=total damage; 0=no damage) ZEAMX (corn (Zea mays, ZEAMX) [1]; Pre-Emergence at 250 g/ha) | damage to plant (100=total damage; 0=no damage) SETFA ([2]; Pre-Emergence at 15.625 g/ha) | damage to plant (100=total damage; 0=no damage) SETFA ([2]; Pre-Emergence at 62.5 g/ha) | damage to plant (100=total damage; 0=no damage) SETFA ([2]; Pre-Emergence at 250 g/ha) | damage to plant (100=total damage; 0=no damage) ECHCG ([3]; Pre-Emergence at 15.625 g/ha) | damage to plant (100=total damage; 0=no damage) ECHCG ([3]; Pre-Emergence at 62.5 g/ha) | damage to plant (100=total damage; 0=no damage) ECHCG ([3]; Pre-Emergence at 250 g/ha) | damage to plant (100=total damage; 0=no damage) IPOHE ([4]; Pre-Emergence at 15.625 g/ha) | damage to plant (100=total damage; 0=no damage) IPOHE ([4]; Pre-Emergence at 62.5 g/ha) | damage to plant (100=total damage; 0=no damage) IPOHE ([4]; Pre-Emergence at 250 g/ha) | damage to plant (100=total damage; 0=no damage) AMARE ([5]; Pre-Emergence at 15.625 g/ha) | damage to plant (100=total damage; 0=no damage) AMARE ([5]; Pre-Emergence at 62.5 g/ha) | damage to plant (100=total damage; 0=no damage) AMARE ([5]; Pre-Emergence at 250 g/ha) | damage to plant (100=total damage; 0=no damage) ABUTH ([6]; Pre-Emergence at 15.625 g/ha) | damage to plant (100=total damage; 0=no damage) ABUTH ([6]; Pre-Emergence at 62.5 g/ha) | damage to plant (100=total damage; 0=no damage) ABUTH ([6]; Pre-Emergence at 250 g/ha) | damage to plant (100=total damage; 0=no damage) ZEAMX (corn (Zea mays, ZEAMX) [7]; Post-Emergence at 15.625 g/ha) | damage to plant (100=total damage; 0=no damage) ZEAMX (corn (Zea mays, ZEAMX) [7]; Post-Emergence at 62.5 g/ha) | also measured
CCn1nc(C2CN(C)C(=O)C2C(=O)Nc2cccc(F)c2F)c2cccc(F)c21 (racemic) [Compound 10] | 0 | 70 | 70 | 80 | 90 | 90 | 50 | 90 | 90 | 0 | 30 | 0 | 0 | 0 | 10 | 0 | 10 | 0 | 0 | 10 | damage to plant (100=total damage; 0=no damage) ZEAMX (corn (Zea mays, ZEAMX) [7]; Post-Emergence at 250 g/ha): 70; damage to plant (100=total damage; 0=no damage) SETFA ([8]; Post-Emergence at 15.625 g/ha): 50; damage to plant (100=total damage; 0=no damage) SETFA ([8]; Post-Emergence at 62.5 g/ha): 80; damage to plant (100=total damage; 0=no damage) SETFA ([8]; Post-Emergence at 250 g/ha): 90; damage to plant (100=total damage; 0=no damage) ECHCG ([9]; Post-Emergence at 15.625 g/ha): 60; damage to plant (100=total damage; 0=no damage) ECHCG ([9]; Post-Emergence at 62.5 g/ha): 90; damage to plant (100=total damage; 0=no damage) ECHCG ([9]; Post-Emergence at 250 g/ha): 90; damage to plant (100=total damage; 0=no damage) IPOHE ([10]; Post-Emergence at 15.625 g/ha): 0; damage to plant (100=total damage; 0=no damage) IPOHE ([10]; Post-Emergence at 62.5 g/ha): 0; damage to plant (100=total damage; 0=no damage) IPOHE ([10]; Post-Emergence at 250 g/ha): 30; damage to plant (100=total damage; 0=no damage) AMARE ([11]; Post-Emergence at 15.625 g/ha): 0; damage to plant (100=total damage; 0=no damage) AMARE ([11]; Post-Emergence at 62.5 g/ha): 0; damage to plant (100=total damage; 0=no damage) AMARE ([11]; Post-Emergence at 250 g/ha): 0; damage to plant (100=total damage; 0=no damage) ABUTH ([12]; Post-Emergence at 15.625 g/ha): 0; damage to plant (100=total damage; 0=no damage) ABUTH ([12]; Post-Emergence at 62.5 g/ha): 0; damage to plant (100=total damage; 0=no damage) ABUTH ([12]; Post-Emergence at 250 g/ha): 10
CN1CC(c2cc(C(F)(F)F)n(C)n2)C(C(=O)Nc2cccc(F)c2OC(F)(F)F)C1=O (racemic) [Compound 16] | 0 | 0 | 30 | 0 | 80 | 90 | 0 | 80 | 90 | 0 | 0 | 50 | 0 | 0 | 0 | 0 | 0 | 0 | 0 | 0 | damage to plant (100=total damage; 0=no damage) ZEAMX (corn (Zea mays, ZEAMX) [7]; Post-Emergence at 250 g/ha): 0; damage to plant (100=total damage; 0=no damage) SETFA ([8]; Post-Emergence at 15.625 g/ha): 0; damage to plant (100=total damage; 0=no damage) SETFA ([8]; Post-Emergence at 62.5 g/ha): 60; damage to plant (100=total damage; 0=no damage) SETFA ([8]; Post-Emergence at 250 g/ha): 70; damage to plant (100=total damage; 0=no damage) ECHCG ([9]; Post-Emergence at 15.625 g/ha): 0; damage to plant (100=total damage; 0=no damage) ECHCG ([9]; Post-Emergence at 62.5 g/ha): 50; damage to plant (100=total damage; 0=no damage) ECHCG ([9]; Post-Emergence at 250 g/ha): 70; damage to plant (100=total damage; 0=no damage) IPOHE ([10]; Post-Emergence at 15.625 g/ha): 0; damage to plant (100=total damage; 0=no damage) IPOHE ([10]; Post-Emergence at 62.5 g/ha): 0; damage to plant (100=total damage; 0=no damage) IPOHE ([10]; Post-Emergence at 250 g/ha): 0; damage to plant (100=total damage; 0=no damage) AMARE ([11]; Post-Emergence at 15.625 g/ha): 0; damage to plant (100=total damage; 0=no damage) AMARE ([11]; Post-Emergence at 62.5 g/ha): 0; damage to plant (100=total damage; 0=no damage) AMARE ([11]; Post-Emergence at 250 g/ha): 0; damage to plant (100=total damage; 0=no damage) ABUTH ([12]; Post-Emergence at 15.625 g/ha): 0; damage to plant (100=total damage; 0=no damage) ABUTH ([12]; Post-Emergence at 62.5 g/ha): 0; damage to plant (100=total damage; 0=no damage) ABUTH ([12]; Post-Emergence at 250 g/ha): 0
